The values below come from patent publication US7521199B2, “Assay to identify estrogen receptor dependent ligands that regulate the hepatic lipase promoter” (Wyeth, priority 2000, dated 2009).

Read-outs that look alike come from different tables or passages of the source.

The IC50 is the midpoint of a concentration-inhibition curve.

For this test, the system named is human hepatic lipase (HL) promoter (−1557 to +43) regulated through human estrogen receptor. The test is described as follows: Hepatic lipase promoter luciferase reporter assay in HepG2 cells cotransfected with human estrogen receptor and C/EBPα. The class given is cell-based. The following applies: for Efficacy (%), Hepatic Lipase Inhibition: relative to 100% effect of 17β-estradiol inhibition of HL activity. The procedure:
Cell media was replaced every 2-3 days. Confluent cells were rinsed once with phosphate-buffered saline and 5 mL of a prewarmed solution comprised of about 0.05% trypsin, by volume, and about 0.5 mM ethylenediamine tetraacetic acid was added. Cells were left at room temperature for 5 minutes and cells were then dislodged from the flask by tapping the flask 50 times. Trypsinization was halted by the addition of about 8.5 mL of growth cell culture media. Cells were transferred to a test tube and centrifuged at about 300×g for about 5 minutes. Total cells were counted and resuspended at a concentration of about 1×10^7 cells/200 μL of growth cell culture media.
The mixture was transferred to a 0.2 mL BTX disposable cuvette (P/N 620). Cells were electroporated using a BTX ECM 600 (San Diego, Calif.), at 100 V, […] and 72 Ω. Cells were left a room temperature for about 20 minutes. Approximately 20.5 mL of growth cell culture media was added to the cells. Cells were then seeded at about 200 μL per well of a 96 well plate. Cells were then incubated at about 37° C. for 4 hours.
Media was aspirated and replaced with 200 μL deficient media, which was comprised of Phenol Red Free-DMEM (Gibco BRL) supplemented with 1%, by volume, glutamax; 1%, by volume, penicillin/strepomycin; 1%, by volume, non-essential amino acids; and 10%, by volume, heat inactivated, and charcoal-stripped fetal bovine serum, containing varying concentrations of estrogen test compounds. […]
After estrogen treatment, cells were washed with phosphate-buffered saline and lysed with Cell Culture Lysis Reagent (Promega; Madison, Wis.), 50 μL/well, by shaking the plate at room temperature for about 20 minutes. From each well, 35 μL of cell lysate was transferred to a 96 lumat plate. Luciferase activity was determined by addition of 100 μL luciferase substrate and emitted light was detected with a Dentate Microfluor WHT FB using the Luciferase Assay System (Promega; Madison, Wis.). β-galactosidase activity was determined by adding 10 μL of cell lysate and 100 μL β-galactosidase light emission buffer (Tropix; Bedford Mass.) to a lumat plate. β-galactosidase activity was determined with a Microlumat LB 96P (EG&G Berthold). Emitted light, for each assay, was detected for 10 seconds.
Data were collected and analyzed with the JMP statistical program. Background RLU values were subtracted from both the luciferase and β-gal values. The data were normalized by division of the corrected luciferase values by the corrected β-gal values. […] Mean and standard deviations were determined from at least two separate experiments with an n=4 for each experiment.
Luciferase activity was determined in cell lysates.
On the technique in general: In a reporter assay the amount or activity of a reporter protein is the signal.

Setting [1] is: transfected HepG2 cells, 16-24 hours treatment.
The mark [2] stands for this setting: transfected HepG2 cells, 16-24 hours treatment, luciferase normalized to β-gal, read-out: IC50 (nM), Hepatic Lipase Inhibition.

In the case of `C[C@]12CC[C@H]3C(=CCc4cc(O)ccc43)[C@@H]1CC[C@H]2O` [17α-dihydroequilin], the “Efficacy (%), Hepatic Lipase Inhibition” value under setting [1] was 89%. Also, under setting [2], the concentration for half-maximal inhibition (IC50) worked out at 164 nM.

As for `C[C@]12CC[C@@H]3c4ccc(O)cc4CC[C@H]3[C@@H]1CC[C@H]2O` [17α-estradiol], the “Efficacy (%), Hepatic Lipase Inhibition” value under setting [1] was found to be 69%. Under setting [2], the IC50 is 457 nM.

As for `C[C@]12CC[C@H]3C(=CCc4cc(O)ccc43)[C@@H]1CC[C@@H]2O` [17β-dihydroequilin], the “Efficacy (%), Hepatic Lipase Inhibition” value under setting [1] turned out to be 149%. Under setting [2], the IC50 was found to be 469 nM.

For the molecule `C[C@]12CC[C@@H]3c4ccc(O)cc4CC[C@H]3[C@@H]1CC[C@@H]2O` [17β-estradiol], the “Efficacy (%), Hepatic Lipase Inhibition” value under setting [1] worked out at 100%. Besides, the IC50 under setting [2] is 88 nM.

Regarding `C[C@]12CCC3=C(CCc4cc(O)ccc43)[C@@H]1CC[C@@H]2O` [17β-Δ8,9-dehydroestradiol], under setting [1], the “Efficacy (%), Hepatic Lipase Inhibition” value is listed as 88%. The IC50 under setting [2] came to 12 nM.

As for `C[C@]12CCc3c(ccc4cc(O)ccc34)[C@@H]1CCC2=O` [equilenin], where the note is “Homo sapiens, HepG2, read-out: IC50 (nM), Hepatic Lipase Inhibition”, the IC50 amounted to 38 nM. For the same molecule, the “Efficacy (%), Hepatic Lipase Inhibition” value under setting [1] came out at 82%.

With `C[C@]12CCC3=C(CCc4cc(O)ccc43)[C@@H]1CCC2=O` [Δ8,9-dehydroestrone], the “Efficacy (%), Hepatic Lipase Inhibition” value under setting [1] turned out to be 93%. Further, the IC50 under setting [2] was 10 nM.
